Experimental data from article PMC5157691 (Research and reports in biochemistry, 2016).
Entries after “also recorded” stand apart in the source; their conditions may differ. Where two headings read alike, the source gives them in different places. Ends that are not written are not given here.

Legend:
Mac-1-HEK293 cells [1] = format: cell-based, human
αMI-domain [2] = conditions: surface plasmon resonance and biolayer interferometry; cited from earlier work
[3] = test system: U937, IC-21 and erythrocytes; assay: Binding density of 125I-LL-37-GY on mammalian cells; conditions: 5 μg/ml 125I-LL-37-GY; U937, IC-21 and erythrocytes vs tested bacteria
[4] = Binding of 125I-LL-37-GY to latex beads; conditions: 10 μg/ml 125I-labeled LL-37-GY; preliminary experiments
[5] = test system: adherent murine peritoneal macrophages; assay: Phagocytosis of E. coli and S. aureus by adherent murine peritoneal macrophages; format: cell-based; conditions: LL-37 5 μg/ml, 60 min at 37 °C
monocyte and macrophages = conditions: cited from earlier work
[6] = test system: human peripheral blood monocytes, neutrophils and T cells; conditions: cited from earlier work
wild-type HEK293 cells [7] = assay: Spreading of wild-type HEK293 cells on LL-37; format: cell-based, human; conditions: 30 min at 37 °C
[8] = test system: adherent IC-21 macrophages; conditions: LL-37 5 μg/ml, S. aureus, 60 min at 37 °C
U937 cells = assay: Adhesion of U937 monocytic cells to immobilized LL-37; format: cell-based, human; conditions: data not shown
wild-type macrophages = assay: Phagocytosis of latex beads by wild-type peritoneal macrophages; format: cell-based, mouse
IC-21 macrophages [9] = assay: Adhesion of IC-21 macrophages to immobilized peptide; format: cell-based, murine; conditions: in words; Fig. 4A shown for K18-37
human THP-1 cells = conditions: LL-37 10 μg/ml, 1 μm beads, beads:cells 10:1, 30 min at 37 °C
murine macrophages = conditions: opsonization with LL-37; cited from earlier work
αMI-domain [10] = conditions: cited from earlier work
Salmonella = assay: Binding density of 125I-LL-37-GY on Salmonella; conditions: 5 μg/ml 125I-LL-37-GY, 20 min at 22 °C
macrophages [11] = assay: Phagocytosis of bacteria by macrophages; format: cell-based
leukocytes = conditions: soluble LL-37; cited from earlier work
bacteria = conditions: bacterial killing in physiologically relevant buffers; cited from earlier work
macrophages [12] = conditions: pretreatment of macrophages with LL-37; cited from earlier work
Human neutrophils [13] = conditions: cited from earlier work
primary human monocytes = conditions: compared to uncoated beads; cited from earlier work
Human neutrophils [14] = conditions: cited from earlier work; remark: listed apart in the source
mammalian cells = conditions: LL-37 10 μg/ml; data not shown
[15] = test system: adherent IC-21 macrophages; conditions: LL-37 5 μg/ml, E. coli, 60 min at 37 °C
Mac-1-HEK293 cells [16] = assay: Adhesion of Mac-1-HEK293 cells to immobilized peptide; format: cell-based, human
wild-type HEK293 cells [17] = assay: Adhesion of wild-type HEK293 cells to immobilized LL-37; format: cell-based, human
rodents = conditions: LL-37 injection; cited from earlier work
IC-21 macrophages [18] = conditions: LL-37 10 μg/ml, 1 μm beads, beads:cells 10:1, 30 min at 37 °C
[19] = test system: Mac-1-deficient macrophages; assay: Phagocytosis of latex beads by Mac-1-deficient peritoneal macrophages; format: cell-based, mouse; conditions: LL-37-coated beads, 30 min at 37 °C
Mac-1-HEK293 cells [20] = assay: Spreading of Mac-1-HEK293 cells on LL-37; format: cell-based, human; conditions: slides coated with LL-37, 30 min at 37 °C
neutrophils = conditions: cited from earlier work
[21] = test system: peritoneal mouse macrophages; conditions: LL-37 10 μg/ml, 1 μm beads, beads:cells 10:1, 30 min at 37 °C
Mac-1 = conditions: cited from earlier work
IC-21 macrophages [22] = assay: Inhibition of IC-21 macrophage adhesion to immobilized K18-37; format: cell-based, murine; conditions: K18-37 coating 0.5 μg/ml; heparin 20 μg/ml; mean ± S.E. from 5-6 experiments
wild-type HEK293 cells [23] = assay: Inhibition of wild-type HEK293 cell adhesion to immobilized LL-37; format: cell-based, human; conditions: heparin 20 μg/ml, all coating concentrations of LL-37
Mac-1-HEK293 cells [24] = assay: Inhibition of Mac-1-HEK293 cell adhesion to immobilized LL-37; format: cell-based, human

## DIDPKLKWD [reference compound]
Mac-1-HEK293 cells [1]; control peptide, fibrinogen coated at 2.5 μg/ml, 15 min at 22 °C
  inhibition of cell adhesion to fibrinogen: inactive

## FKRIVQRIKDFLR [FK-13, reference compound]
αMI-domain [2]
  interaction with αMI-domain: no interaction

## KRIVQRIKDFLRNLVPRTES [K18-37]
Mac-1-HEK293 cells [1]; 3 h
  IC50 for inhibition of cell adhesion to fibrinogen: 6 µg/mL

## LL-37-GY: LL-37 containing two additional C-terminal residues Gly-Tyr (LLGDFFRKSKEKIGKEFKRIVQRIKDFLRNLVPRTESGY; also: 125I label, place not given here)
[3]
  binding compared with bacteria: bound significantly less
[4]
  binding density on beads: 10.6±1.3 fg/μm^2

## LLGDFFRKSKEKIGKEFKRIVQRIKDFLRNLVPRTES [LL-37]
[5]
  phagocytosis: increased phagocytosis
Monocyte and macrophages
  induction of migration: induces a potent migratory response of Mac-1-expressing monocytes and macrophages; also recorded: induced Mac-1-dependent migration of monocyte and macrophages
αMI-domain [2]
  interaction with αMI-domain: The interaction of the αMI-domain with LL-37 also was recently reported
[6]
  chemotactic effect: chemotactic effect
wild-type HEK293 cells [7]; LL-37 coating 2 μg/ml
  cell spreading: spread at higher LL-37 concentrations
wild-type HEK293 cells [7]; LL-37 coating 0.2-1.0 μg/ml
  cell spreading: remained round
[8]
  fold increase of phagocytosis: ~10 fold
U937 cells
  adhesion of U937 cells: adhered to LL-37 in a concentration-dependent manner
wild-type macrophages; LL-37-coated beads, 30 min at 37 °C, three experiments in triplicate
  enhancement of bead uptake: ~ 5 times
wild-type macrophages; LL-37-coated vs untreated beads, abstract
  enhancement of bead uptake: several fold higher than that of untreated beads
IC-21 macrophages [9]
  adhesion of IC-21 macrophages: strongly adhered
Human THP-1 cells
  fold augmentation of bead uptake: ~6 fold
Murine macrophages
  phagocytosis: increased phagocytosis by murine macrophages
αMI-domain [10]
  αMI-domain binding: binds the αMI-domain
Salmonella
  binding relative to E. coli (fold less): 1.8 fold
  binding to Salmonella relative to mammalian cells (fold higher): ~ 17 fold
Macrophages [11]; Gram-negative and Gram-positive bacteria coated with LL-37, abstract
  phagocytosis of bacteria: significantly potentiated their phagocytosis
Macrophages [11]; summary in discussion
  concentration found to enhance bacterial phagocytosis: 1 to 5 µg/mL
leukocytes
  concentration affecting membrane integrity of leukocytes: > 50 µg/mL
bacteria
  minimal inhibitory concentration: 30 to 100 µg/mL
Macrophages [12]
  bacterial phagocytosis: augmented by pretreatment of macrophages
Human neutrophils [13]
  production of reactive oxygen species: increase the production of reactive oxygen species
Primary human monocytes
  uptake of LL-37-coated beads: increased compared to uncoated beads
Human neutrophils [14]
  apoptosis: delayed apoptosis
Mammalian cells
  calcein leakage relative to background of control untreated cells: ~ 3 fold
[15]
  fold increase of phagocytosis: ~ 17 fold
Mac-1-HEK293 cells [16]; LL-37 coating 2 μg/ml, 30 min at 37 °C, calcein fluorescence, n=6
  adhesion (percent of added cells): 52 ± 5%
Mac-1-HEK293 cells [16]; Mac-1-HEK293, 30 min at 37 °C
  coating concentration for saturable adhesion: 2 µg/mL
Mac-1-HEK293 cells [16]; in words
  adhesion supported by peptide: supported strong adhesion; also recorded: supported efficient adhesion
wild-type HEK293 cells [17]; LL-37 coating 0-1.0 μg/ml
  adhesion of wild-type HEK293 cells: no adhesion
wild-type HEK293 cells [17]; LL-37 coating 1-4 μg/ml
  adhesion of wild-type HEK293 cells: supported adhesion of wild-type HEK293 cells; however, maximal adhesion did not reach the level attained with Mac-1-HEK293 cells
rodents
  protection from septic death: protects rodents from septic death
IC-21 macrophages [18]
  fold augmentation of bead uptake: ~ 3.5 fold
[19]
  enhancement of bead uptake: failed to augment phagocytosis of beads
Mac-1-HEK293 cells [20]
  cell spreading: spread in a concentration-dependent manner with the formation of stress fibers
neutrophils
  neutrophil activation: activates Mac-1 on the surface of neutrophils
[21]
  fold augmentation of bead uptake: ~4.5 fold

## dynorphin A
Mac-1
  phagocytosis: enhance phagocytosis
Mac-1; opsonization, through Mac-1
  phagocytosis: opsonizes bacteria and promotes phagocytosis through Mac-1

## heparin
IC-21 macrophages [22]
  inhibition of adhesion to K18-37: 25 ± 13%
wild-type HEK293 cells [23]
  inhibition of adhesion of wild-type HEK293 cells: strong inhibitor of adhesion

B1: NIF: neutrophil inhibitory factor, a specific inhibitor of the αMI-domain-ligand interactions (protein)
chain: NEHNLRCPQNGTEMPGFNDSIRLQFLAMHNGYRSKLALGHISITEESESDDDDDFGFLPDFAPRASKMRYLEYDCEAEKSAYMSARNCSDSSSPPEGYDENKYIFENSNNISEAALKAMISWAKEAFNLNKTKEGEGVLYRSNHDISNFANLAWDAREKFGCAVVNCPLGEIDDETNHDGETYATTIHVVCHYPKINKTEGQPIYKVGTPCDDCSEYTKKADNTTSADPVCIPDDGVCFIGSKADYDSKEFYRFREL
Mac-1-HEK293 cells [24]; LL-37 coating high (2 μg/ml or ≥2 μg/ml), inhibitor preincubated 15 min at 22 °C
  inhibition of adhesion: but not high (≥2 μg/ml) concentrations
Mac-1-HEK293 cells [24]; abstract, various Mac-1-expressing cells
  inhibition of cell adhesion to LL-37 (summary, words): partially inhibited
